Laboratory results: patent publication US12319640B2, “Cyclic diones as herbicidal compounds” (SYNGENTA CROP PROTECTION AG, priority 2019, dated 2025)

What was measured:
Assay in all cases: Glasshouse herbicide test, pre- and post-emergence
Type in all cases: in vivo
Avena fatua (AVEFA) = details: 250 g/h, evaluated after 13 days, five-point scale; for percentage damage caused to the plant, AVEFA POST: post-emergence; for percentage damage caused to the plant, AVEFA PRE: pre-emergence
Experimental: (§1) Seeds of a variety of test species are sown in standard soil in pots (Lolium perenne (LOLPE), Setaria faberi (SETFA), Alopecurus myosuroides (ALOMY), Echinochloa crus-galli (ECHCG), Avena fatua (AVEFA)). After cultivation for one day (pre-emergence) or after 8 days cultivation (post-emergence) under controlled conditions in a glasshouse (at 24/16° C., day/night; 14 hours light; 65% humidity), the plants are sprayed with an aqueous spray solution derived from the formulation of the technical active ingredient in acetone/water (50:50) solution containing 0.5% Tween 20 (polyoxyethelyene sorbitan monolaurate, CAS RN 9005-64-5). Compounds are applied at 250 g/h. The test plants are then grown in a glasshouse under controlled conditions in a glasshouse (at 24/16° C., day/night; 14 hours light; 65% humidity) and watered twice daily. After 13 days for pre and post-emergence, the test is evaluated for the percentage damage caused to the plant. The biological activities are shown in the following table on a five-point scale (5=80-100%; 4=60-79%; 3=40-59%; 2=20-39%; 1=0-19%).

Setaria faberi (SETFA) = details: 250 g/h, evaluated after 13 days, five-point scale; for percentage damage caused to the plant, SETFA POST: post-emergence; for percentage damage caused to the plant, SETFA PRE: pre-emergence
Experimental: as §1

Lolium perenne (LOLPE) = details: 250 g/h, evaluated after 13 days, five-point scale; for percentage damage caused to the plant, LOLPE POST: post-emergence; for percentage damage caused to the plant, LOLPE PRE: pre-emergence
Experimental: as §1

[1] = tested on: Echinochloa crus-galli (ECHCG); details: 250 g/h, evaluated after 13 days, five-point scale; for percentage damage caused to the plant, ECHCG POST: post-emergence; for percentage damage caused to the plant, ECHCG PRE: pre-emergence
Experimental: as §1

[2] = tested on: Alopecurus myosuroides (ALOMY); details: 250 g/h, evaluated after 13 days, five-point scale; for percentage damage caused to the plant, ALOMY POST: post-emergence; for percentage damage caused to the plant, ALOMY PRE: pre-emergence
Experimental: as §1

SMILES	percentage damage caused to the plant, AVEFA POST (Avena fatua (AVEFA))	percentage damage caused to the plant, AVEFA PRE (Avena fatua (AVEFA))	percentage damage caused to the plant, SETFA POST (Setaria faberi (SETFA))	percentage damage caused to the plant, SETFA PRE (Setaria faberi (SETFA))	percentage damage caused to the plant, LOLPE POST (Lolium perenne (LOLPE))	percentage damage caused to the plant, LOLPE PRE (Lolium perenne (LOLPE))	percentage damage caused to the plant, ECHCG POST [1]	percentage damage caused to the plant, ECHCG PRE [1]	percentage damage caused to the plant, ALOMY POST [2]	percentage damage caused to the plant, ALOMY PRE [2]
CC#Cc1cc(C)c(C2C(=O)CC3(CCC(C(=O)NCCO)CC3)CC2=O)c(C)c1 (centres unmarked) [Compound 1.012]	4 (4=60-79%)	4 (4=60-79%)	5 (5=80-100%)	4 (4=60-79%)	4 (4=60-79%)	4 (4=60-79%)	5 (5=80-100%)	4 (4=60-79%)	4 (4=60-79%)	4 (4=60-79%)
CC#Cc1cc(C)c(C2C(=O)CC3(CCC(NC(=O)NC(=O)C(C)(C)C)CC3)CC2=O)c(C)c1 (centres unmarked) [Compound 2.022]	5 (5=80-100%)	3 (3=40-59%)	5 (5=80-100%)	5 (5=80-100%)	5 (5=80-100%)	5 (5=80-100%)	5 (5=80-100%)	5 (5=80-100%)	5 (5=80-100%)	5 (5=80-100%)
CC#Cc1cc(C)c(C2C(=O)CC3(CCC(NC(=O)c4cnco4)CC3)CC2=O)c(C)c1 (centres unmarked) [Compound 2.016]	5 (5=80-100%)	4 (4=60-79%)	5 (5=80-100%)	5 (5=80-100%)	5 (5=80-100%)	5 (5=80-100%)	5 (5=80-100%)	5 (5=80-100%)	4 (4=60-79%)	3 (3=40-59%)
CC(=O)NC1CCC2(CC1)CC(=O)C(c1c(C)cc(-c3ncc(F)cn3)cc1C)C(=O)C2 (centres unmarked) [Compound 2.028]	5 (5=80-100%)	4 (4=60-79%)	5 (5=80-100%)	5 (5=80-100%)	5 (5=80-100%)	5 (5=80-100%)	5 (5=80-100%)	5 (5=80-100%)	5 (5=80-100%)	5 (5=80-100%)
CC#Cc1cc(C)c(C2C(=O)CC3(CCC(NC(=O)CC#N)CC3)CC2=O)c(C)c1 (centres unmarked) [Compound 2.010]	5 (5=80-100%)	5 (5=80-100%)	5 (5=80-100%)	5 (5=80-100%)	5 (5=80-100%)	5 (5=80-100%)	5 (5=80-100%)	5 (5=80-100%)	5 (5=80-100%)	5 (5=80-100%)
CC#Cc1cc(C)c(C2C(=O)CC3(CCC(C(=O)N4CCOCC4)CC3)CC2=O)c(C)c1 (centres unmarked) [Compound 1.008]	5 (5=80-100%)	3 (3=40-59%)	4 (4=60-79%)	5 (5=80-100%)	5 (5=80-100%)	5 (5=80-100%)	5 (5=80-100%)	5 (5=80-100%)	5 (5=80-100%)	4 (4=60-79%)
Cc1cc(-c2ccc(C#N)cn2)cc(C)c1C1C(=O)CC2(CCC(NC(=O)C3CC3)CC2)CC1=O (centres unmarked) [Compound 2.029]	5 (5=80-100%)	4 (4=60-79%)	5 (5=80-100%)	5 (5=80-100%)	5 (5=80-100%)	5 (5=80-100%)	5 (5=80-100%)	5 (5=80-100%)	5 (5=80-100%)	2 (2=20-39%)
CC#Cc1cc(C)c(C2C(=O)CC3(CCC(NC(=O)COC)CC3)CC2=O)c(C)c1 (centres unmarked) [Compound 2.020]	5 (5=80-100%)	5 (5=80-100%)	5 (5=80-100%)	5 (5=80-100%)	5 (5=80-100%)	5 (5=80-100%)	5 (5=80-100%)	5 (5=80-100%)	5 (5=80-100%)	5 (5=80-100%)
CC#Cc1cc(C)c(C2C(=O)CC3(CCC(NC(=O)C(=O)NC)CC3)CC2=O)c(C)c1 (centres unmarked) [Compound 2.007]	5 (5=80-100%)	5 (5=80-100%)	5 (5=80-100%)	5 (5=80-100%)	5 (5=80-100%)	5 (5=80-100%)	5 (5=80-100%)	5 (5=80-100%)	5 (5=80-100%)	5 (5=80-100%)
CC(=O)NC1CCC2(CC1)CC(=O)C(c1c(C)cc(-c3ccc(F)cn3)cc1C)C(=O)C2 (centres unmarked) [Compound 2.032]	5 (5=80-100%)	4 (4=60-79%)	5 (5=80-100%)	5 (5=80-100%)	5 (5=80-100%)	5 (5=80-100%)	5 (5=80-100%)	5 (5=80-100%)	5 (5=80-100%)	5 (5=80-100%)
CC#Cc1cc(C)c(C2C(=O)CC3(CCC(C(=O)NC)C3)CC2=O)c(C)c1 (centres unmarked) [Compound 1.018]	5 (5=80-100%)	5 (5=80-100%)	5 (5=80-100%)	5 (5=80-100%)	5 (5=80-100%)	5 (5=80-100%)	5 (5=80-100%)	5 (5=80-100%)	5 (5=80-100%)	5 (5=80-100%)
